Values after ≈ are worked out from the molar mass of the structure shown. Read-outs that look alike come from different tables or passages of the source.
What was measured:
S. aureus ATCC 29213 = assay: MIC panel (Laboratory Specialists, Inc.), S. aureus ATCC 29213; type: cell-based; details: Staphylococcus aureus, ATCC29213, read-out: MIC S. aureus ATCC 29213 (n = 3); Cmpd. 6; CLSI broth microdilution; very small pinpoint growth up to 4 μg/mL
[1] = test system: Streptococcus pneumoniae LSI-4246; assay: MIC panel (Laboratory Specialists, Inc.), S. pneumoniae LSI-4246; type: cell-based; details: LSI4246, Cmpd. 6, penicillin-resistant strain
[2] = test system: Enterococcus faecalis ATCC 29212; assay: MIC panel (Laboratory Specialists, Inc.), E. faecalis; type: cell-based; details: ATCC29212, Cmpd. 6, CLSI broth microdilution
[3] = target: T1, Kir2.1 Human Potassium Ion Channel (Homo sapiens, UniProt P63252); assay: Kir2.1 QPatch CiPA assay; type: cell-based; details: mean, duplicate
T1 construct: expressed in transfected cells
T1 sequence (P63252 1-427): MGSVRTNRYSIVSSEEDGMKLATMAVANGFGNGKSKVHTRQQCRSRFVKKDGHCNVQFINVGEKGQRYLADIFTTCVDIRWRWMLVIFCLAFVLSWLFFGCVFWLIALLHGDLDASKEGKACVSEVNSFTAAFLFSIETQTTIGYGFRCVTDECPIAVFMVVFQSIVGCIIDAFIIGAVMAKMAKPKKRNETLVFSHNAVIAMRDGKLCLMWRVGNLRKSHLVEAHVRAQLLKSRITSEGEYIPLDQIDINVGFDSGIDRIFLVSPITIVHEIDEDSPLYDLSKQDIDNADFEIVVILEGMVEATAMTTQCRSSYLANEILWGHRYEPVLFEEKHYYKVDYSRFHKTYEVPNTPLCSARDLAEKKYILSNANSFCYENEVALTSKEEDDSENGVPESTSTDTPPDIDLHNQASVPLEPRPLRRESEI
Text: (§1) Early drug discovery programs commonly assess hERG inhibition as the only indicator of potential cardiovascular safety concerns. Researchers have recently recommended a more rigorous evaluation of multiple cardiac ion channels to provide a more comprehensive cardiovascular risk assessment (Fermini, B., et al., A New Perspective in the Field of Cardiac Safety Testing through the Comprehensive In Vitro Proarrhythmia Assay Paradigm. J. Biomolec. Screening 2016, 21, 1-11). Given the promising initial results for 6, further evaluation was undertaken (in duplicate) in a Comprehensive in vitro Proarrhythmia Assay (CiPA) eight assay panel run on the QPatch HT (Sophion, Denmark) automated patch clamp system at three concentrations (3, 30, and 100 μM). All data were filtered for seal quality, seal drop, and current amplitude. A stock solution of the test compound at 30 mM concentration was prepared in DMSO.
The parameters measured were the maximum inward current evoked on stepping to −120 mV from the test pulse. The peak current amplitude was calculated before and after compound addition and the amount of block was assessed by dividing the Test compound current amplitude by the Control current amplitude. Control is the mean hKir2.1 current amplitude collected 15 seconds at the end of the control; Test Compound is the mean hKir2.1 current amplitude peak and end collected in the presence of test compound at each concentration. The positive control was barium chloride.

[4] = target: T2, Nav1.5 Late Current Human Ion Channel (Homo sapiens, UniProt Q14524); assay: Nav1.5 late current agonist QPatch CiPA assay; type: cell-based; details: normalized to ATXII response
T2 construct: expressed in transfected cells
Text: as §1
The parameters measured were the degree of activation of inward current (charge) evoked on stepping to −15 mV from the test pulse. The peak and ramp current (charge) amplitude was calculated before and after compound addition and the amount of current (charge) was assessed by dividing the Test compound current (charge) by the Control current (charge). Control is the mean hNav1.5 late current (charge) collected 15 seconds at the end of the control; Test Compound is the mean hNav1.5 current (charge) collected in the presence of test compound at each concentration. Changes in charge were normalized to the maximum response of the EC50 of ATXII (positive control).

[5] = target: T2, Nav1.5 Late Current Human Ion Channel; type: cell-based; details: in presence of 30 nM ATXII
Text: as §1
The parameters measured were the maximum inward current (charge) evoked on stepping to −15mV from the test pulse in the presence of 30 nM ATXII. The peak and ramp current (charge) amplitude was calculated before and after compound addition and the amount of current (charge) was assessed by dividing the Test compound current (charge) by the Control current (charge). Control is the mean hNav1.5 late current (charge) collected 15 seconds at the end of the control (30 nM ATXII); Test Compound is the mean hNav1.5 current (charge) collected in the presence of test compound and 30 nM ATXII at each concentration. The positive control was ranolizine.

in vitro [6] = type: in vitro ADME; details: pH 7.4, 10 μM, equilibrium dialysis
Method: In this assay an equilibrium dialysis technique was used to separate unbound test compound from compound bound to proteins. The plasma was spiked with the test compound at 10 μM with a final DMSO concentration of 1%. The dialysate compartment was loaded with phosphate buffered saline (PBS, pH 7.4) and the sample side was loaded with equal volume of the spiked plasma, After incubation at 37° C. for 4 hours, samples were removed from each plasma and buffer chamber; plasma protein was removed by treatment with acetonitrile. Recovered samples were analyzed using LC-MS.

in vitro [7] = type: in vitro ADME; details: pH 7.4, 1 μM, read-out: microsomal half-life
Method: The test compound at 1 μM was pre-incubated with pooled liver microsomes in phosphate buffer (pH 7.4) for 5 minutes in a 37° C. shaking water bath. The reaction was initiated by adding NADPH-generating mixture (NADP+, glucose-6-phospate, glucose-6-phosphate dehydrogenase) and incubated for 0, 15, 30, 45, and 60 minutes. The reaction was stopped by transferring aliquots of the incubation mixture to acetonitrile/methanol. Samples were centrifuged, and supernatants analyzed by LCMS. The half-life was calculated from the slope of the initial linear range of the logarithmic curve of compound remaining %) vs. time, assuming first order kinetics. In addition, the intrinsic clearance (Clint) was calculated from the half-life.

[8] = read-out: % Inhibition Kir2.1 (end current)
[9] = read-out: % Inhibition Kir2.1 (peak current)

T2 sequence (Q14524 whole entry): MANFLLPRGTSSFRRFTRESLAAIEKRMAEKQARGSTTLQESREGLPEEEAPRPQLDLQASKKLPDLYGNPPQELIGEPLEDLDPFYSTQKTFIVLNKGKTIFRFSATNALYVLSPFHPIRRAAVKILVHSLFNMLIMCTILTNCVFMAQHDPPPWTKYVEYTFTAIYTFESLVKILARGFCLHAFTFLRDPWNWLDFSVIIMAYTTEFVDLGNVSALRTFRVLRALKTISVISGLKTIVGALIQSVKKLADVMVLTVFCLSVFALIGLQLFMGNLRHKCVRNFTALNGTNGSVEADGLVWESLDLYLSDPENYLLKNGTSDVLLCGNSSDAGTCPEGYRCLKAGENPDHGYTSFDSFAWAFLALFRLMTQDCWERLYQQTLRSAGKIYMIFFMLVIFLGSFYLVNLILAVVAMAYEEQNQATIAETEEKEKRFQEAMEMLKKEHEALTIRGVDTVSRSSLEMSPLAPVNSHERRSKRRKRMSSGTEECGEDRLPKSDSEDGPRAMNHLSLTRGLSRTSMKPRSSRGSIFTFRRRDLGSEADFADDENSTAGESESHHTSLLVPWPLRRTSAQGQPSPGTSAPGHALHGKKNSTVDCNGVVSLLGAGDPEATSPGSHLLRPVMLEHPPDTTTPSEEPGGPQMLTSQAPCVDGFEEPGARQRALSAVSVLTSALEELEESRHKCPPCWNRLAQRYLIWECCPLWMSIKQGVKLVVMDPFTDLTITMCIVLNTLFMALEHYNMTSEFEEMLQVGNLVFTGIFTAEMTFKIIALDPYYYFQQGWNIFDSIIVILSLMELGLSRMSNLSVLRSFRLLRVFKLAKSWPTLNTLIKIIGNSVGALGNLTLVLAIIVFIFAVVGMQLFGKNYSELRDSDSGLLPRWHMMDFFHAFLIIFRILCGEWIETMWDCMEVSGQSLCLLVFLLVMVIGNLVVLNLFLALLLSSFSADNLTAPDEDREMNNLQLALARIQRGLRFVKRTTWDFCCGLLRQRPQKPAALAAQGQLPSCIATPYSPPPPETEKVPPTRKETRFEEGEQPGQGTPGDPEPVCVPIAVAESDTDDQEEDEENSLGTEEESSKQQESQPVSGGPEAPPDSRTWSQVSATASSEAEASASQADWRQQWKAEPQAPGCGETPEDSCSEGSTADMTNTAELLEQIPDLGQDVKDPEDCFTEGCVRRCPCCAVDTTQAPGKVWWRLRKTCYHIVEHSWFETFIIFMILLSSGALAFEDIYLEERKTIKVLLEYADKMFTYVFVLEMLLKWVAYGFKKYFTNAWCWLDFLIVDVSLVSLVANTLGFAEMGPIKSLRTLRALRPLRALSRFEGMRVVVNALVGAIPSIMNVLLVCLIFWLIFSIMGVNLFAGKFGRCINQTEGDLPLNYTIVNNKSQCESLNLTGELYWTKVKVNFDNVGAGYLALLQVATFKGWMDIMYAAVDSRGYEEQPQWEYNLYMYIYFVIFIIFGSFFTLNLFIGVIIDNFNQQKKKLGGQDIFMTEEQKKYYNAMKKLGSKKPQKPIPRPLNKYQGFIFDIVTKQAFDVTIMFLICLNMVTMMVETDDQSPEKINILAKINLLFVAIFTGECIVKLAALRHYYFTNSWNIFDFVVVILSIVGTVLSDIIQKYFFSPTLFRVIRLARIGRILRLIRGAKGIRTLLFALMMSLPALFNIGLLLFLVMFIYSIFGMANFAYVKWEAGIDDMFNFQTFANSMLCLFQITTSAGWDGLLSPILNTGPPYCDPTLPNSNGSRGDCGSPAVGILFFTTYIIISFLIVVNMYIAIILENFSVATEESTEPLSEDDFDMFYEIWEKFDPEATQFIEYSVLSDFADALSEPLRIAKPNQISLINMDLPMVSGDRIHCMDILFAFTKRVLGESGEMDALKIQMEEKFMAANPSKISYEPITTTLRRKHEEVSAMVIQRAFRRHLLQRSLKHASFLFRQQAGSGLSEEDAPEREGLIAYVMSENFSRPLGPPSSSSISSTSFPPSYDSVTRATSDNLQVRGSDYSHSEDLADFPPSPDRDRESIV

COc1ccc2ncc(F)c(CC[C@@]3(O)CO[C@@H]4[C@@H](NCc5cc6c(cn5)OCCO6)CO[C@@H]43)c2n1 [Compound 6, (3R, 3aS,6S,6aR)-6-(((2,3-dihydro-[1,4]dioxino[2,36-c]pyridin-7-yl)methyl)amnino)-3-(2-(3-fluoro-6-methoxy-1,5-naphthyridin-4-yl)ethyl)hexahydrofuro[3,2-b]furan-3-ol]
MIC (S. aureus ATCC 29213): 0.25 µg/mL (≈ 0.501 µM)
MIC [1]: ≤ 0.12 µg/mL
MIC [2]: 2 µg/mL (≈ 4.01 µM)
inhibition at 3 µM [3, 8]: 8.3%
inhibition at 3 µM [3, 9]: 6.9%
inhibition at 30 µM [3, 8]: 19.6%
inhibition at 30 µM [3, 9]: 18%
inhibition at 100 µM [3, 8]: 31.9%
inhibition at 100 µM [3, 9]: 29.7%
Navi1.5 Late (agonist - activation of late current) ([4]; 3 μM): 3.4%
Navi1.5 Late (agonist - activation of late current) ([4]; 30 μM): 7.7%
Navi1.5 Late (agonist - activation of late current) ([4]; 100 μM): 17.0%
% Inhibition Nav1.5 Late (antagonist - inhibition of ATXII EC50 current) ([5]; 3 μM): 4.3%
% Inhibition Nav1.5 Late (antagonist - inhibition of ATXII EC50 current) ([5]; 30 μM): 19.1%
% Inhibition Nav1.5 Late (antagonist - inhibition of ATXII EC50 current) ([5]; 100 μM): 50.9%
fraction unbound (in vitro [6]; human plasma): 0.138
fraction unbound (in vitro [6]; mouse plasma): 0.047
half-life (in vitro [7]; human microsomes): 6 min
half-life (in vitro [7]; mouse microsomes): 3 min

— patent US20230097866A1, “BACTERIAL TOPOISOMERASE INHIBITORS DERIVED FROM ISOMANNIDE” (Ohio State Innovation Foundation, priority 2020, published 2023)
